In paper PMC9851200, “Multiparameter phenotypic screening for endogenous TFEB and TFE3 translocation identifies novel chemical series modulating lysosome function” (Autophagy, 2022):

What was measured:
Format in all cases: binding
[1] = molecular target: T1, kinases (KINOMEscan panel) (Homo sapiens, UniProt O15075); conditions: NEW KINOMEscan
T1 sequence (O15075 1-740): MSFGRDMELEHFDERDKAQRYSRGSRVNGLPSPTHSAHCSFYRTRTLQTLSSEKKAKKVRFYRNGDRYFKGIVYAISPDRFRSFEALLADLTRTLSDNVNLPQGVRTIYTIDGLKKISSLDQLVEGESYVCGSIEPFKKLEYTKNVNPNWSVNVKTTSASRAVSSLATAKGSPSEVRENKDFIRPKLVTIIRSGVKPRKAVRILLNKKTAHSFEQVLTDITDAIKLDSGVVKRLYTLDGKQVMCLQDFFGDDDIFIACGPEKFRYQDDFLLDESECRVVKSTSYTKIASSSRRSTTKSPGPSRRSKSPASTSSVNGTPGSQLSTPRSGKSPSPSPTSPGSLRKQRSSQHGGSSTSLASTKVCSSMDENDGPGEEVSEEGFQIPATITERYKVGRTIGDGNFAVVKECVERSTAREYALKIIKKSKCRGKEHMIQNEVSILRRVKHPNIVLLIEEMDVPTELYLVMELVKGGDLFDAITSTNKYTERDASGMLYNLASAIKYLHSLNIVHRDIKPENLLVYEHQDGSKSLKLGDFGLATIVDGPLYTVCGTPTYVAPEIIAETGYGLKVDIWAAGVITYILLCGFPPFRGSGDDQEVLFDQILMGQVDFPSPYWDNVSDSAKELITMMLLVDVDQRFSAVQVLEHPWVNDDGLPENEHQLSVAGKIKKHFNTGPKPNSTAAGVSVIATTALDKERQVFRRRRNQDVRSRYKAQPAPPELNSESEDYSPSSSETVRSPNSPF

[2] = molecular target: kinases (KINOMEscan panel) (Homo sapiens, UniProt P07949, M918T); conditions: NEW KINOMEscan
Chain of kinases (KINOMEscan panel) (Homo sapiens, UniProt P07949, M918T) (P07949 29-1114 M918T): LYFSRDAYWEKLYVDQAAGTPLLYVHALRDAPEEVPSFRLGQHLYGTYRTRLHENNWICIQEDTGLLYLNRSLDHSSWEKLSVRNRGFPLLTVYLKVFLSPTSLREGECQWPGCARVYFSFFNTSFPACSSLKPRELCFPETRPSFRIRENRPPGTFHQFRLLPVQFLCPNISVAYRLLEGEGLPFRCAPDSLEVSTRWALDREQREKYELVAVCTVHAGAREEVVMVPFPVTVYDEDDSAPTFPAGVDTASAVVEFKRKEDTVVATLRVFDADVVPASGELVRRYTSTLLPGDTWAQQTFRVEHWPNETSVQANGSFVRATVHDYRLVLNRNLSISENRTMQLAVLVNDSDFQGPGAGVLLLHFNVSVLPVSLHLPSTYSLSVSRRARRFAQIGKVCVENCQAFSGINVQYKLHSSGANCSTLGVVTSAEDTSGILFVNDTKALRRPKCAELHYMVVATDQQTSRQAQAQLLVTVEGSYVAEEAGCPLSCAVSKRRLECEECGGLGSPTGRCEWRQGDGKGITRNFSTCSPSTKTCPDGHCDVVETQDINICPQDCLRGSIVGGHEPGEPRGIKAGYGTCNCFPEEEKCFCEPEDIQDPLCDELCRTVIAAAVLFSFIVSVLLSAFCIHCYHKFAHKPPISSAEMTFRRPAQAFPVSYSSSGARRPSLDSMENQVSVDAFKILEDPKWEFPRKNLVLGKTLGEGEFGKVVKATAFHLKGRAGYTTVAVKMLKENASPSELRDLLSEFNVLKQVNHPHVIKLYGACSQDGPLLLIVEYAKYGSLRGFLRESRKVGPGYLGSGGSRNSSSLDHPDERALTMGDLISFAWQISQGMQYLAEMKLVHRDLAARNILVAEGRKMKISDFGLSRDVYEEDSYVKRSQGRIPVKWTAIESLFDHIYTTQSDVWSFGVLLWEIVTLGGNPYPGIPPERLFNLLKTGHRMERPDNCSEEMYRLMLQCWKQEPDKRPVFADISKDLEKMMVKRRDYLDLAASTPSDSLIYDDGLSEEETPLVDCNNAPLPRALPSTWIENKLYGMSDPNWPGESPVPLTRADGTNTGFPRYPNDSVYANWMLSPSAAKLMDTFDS

[3] = molecular target: kinases (KINOMEscan panel) (Homo sapiens, UniProt Q9Y3S1); conditions: WNK2; NEW KINOMEscan
Chain of kinases (KINOMEscan panel) (Homo sapiens, UniProt Q9Y3S1) (Q9Y3S1 whole entry): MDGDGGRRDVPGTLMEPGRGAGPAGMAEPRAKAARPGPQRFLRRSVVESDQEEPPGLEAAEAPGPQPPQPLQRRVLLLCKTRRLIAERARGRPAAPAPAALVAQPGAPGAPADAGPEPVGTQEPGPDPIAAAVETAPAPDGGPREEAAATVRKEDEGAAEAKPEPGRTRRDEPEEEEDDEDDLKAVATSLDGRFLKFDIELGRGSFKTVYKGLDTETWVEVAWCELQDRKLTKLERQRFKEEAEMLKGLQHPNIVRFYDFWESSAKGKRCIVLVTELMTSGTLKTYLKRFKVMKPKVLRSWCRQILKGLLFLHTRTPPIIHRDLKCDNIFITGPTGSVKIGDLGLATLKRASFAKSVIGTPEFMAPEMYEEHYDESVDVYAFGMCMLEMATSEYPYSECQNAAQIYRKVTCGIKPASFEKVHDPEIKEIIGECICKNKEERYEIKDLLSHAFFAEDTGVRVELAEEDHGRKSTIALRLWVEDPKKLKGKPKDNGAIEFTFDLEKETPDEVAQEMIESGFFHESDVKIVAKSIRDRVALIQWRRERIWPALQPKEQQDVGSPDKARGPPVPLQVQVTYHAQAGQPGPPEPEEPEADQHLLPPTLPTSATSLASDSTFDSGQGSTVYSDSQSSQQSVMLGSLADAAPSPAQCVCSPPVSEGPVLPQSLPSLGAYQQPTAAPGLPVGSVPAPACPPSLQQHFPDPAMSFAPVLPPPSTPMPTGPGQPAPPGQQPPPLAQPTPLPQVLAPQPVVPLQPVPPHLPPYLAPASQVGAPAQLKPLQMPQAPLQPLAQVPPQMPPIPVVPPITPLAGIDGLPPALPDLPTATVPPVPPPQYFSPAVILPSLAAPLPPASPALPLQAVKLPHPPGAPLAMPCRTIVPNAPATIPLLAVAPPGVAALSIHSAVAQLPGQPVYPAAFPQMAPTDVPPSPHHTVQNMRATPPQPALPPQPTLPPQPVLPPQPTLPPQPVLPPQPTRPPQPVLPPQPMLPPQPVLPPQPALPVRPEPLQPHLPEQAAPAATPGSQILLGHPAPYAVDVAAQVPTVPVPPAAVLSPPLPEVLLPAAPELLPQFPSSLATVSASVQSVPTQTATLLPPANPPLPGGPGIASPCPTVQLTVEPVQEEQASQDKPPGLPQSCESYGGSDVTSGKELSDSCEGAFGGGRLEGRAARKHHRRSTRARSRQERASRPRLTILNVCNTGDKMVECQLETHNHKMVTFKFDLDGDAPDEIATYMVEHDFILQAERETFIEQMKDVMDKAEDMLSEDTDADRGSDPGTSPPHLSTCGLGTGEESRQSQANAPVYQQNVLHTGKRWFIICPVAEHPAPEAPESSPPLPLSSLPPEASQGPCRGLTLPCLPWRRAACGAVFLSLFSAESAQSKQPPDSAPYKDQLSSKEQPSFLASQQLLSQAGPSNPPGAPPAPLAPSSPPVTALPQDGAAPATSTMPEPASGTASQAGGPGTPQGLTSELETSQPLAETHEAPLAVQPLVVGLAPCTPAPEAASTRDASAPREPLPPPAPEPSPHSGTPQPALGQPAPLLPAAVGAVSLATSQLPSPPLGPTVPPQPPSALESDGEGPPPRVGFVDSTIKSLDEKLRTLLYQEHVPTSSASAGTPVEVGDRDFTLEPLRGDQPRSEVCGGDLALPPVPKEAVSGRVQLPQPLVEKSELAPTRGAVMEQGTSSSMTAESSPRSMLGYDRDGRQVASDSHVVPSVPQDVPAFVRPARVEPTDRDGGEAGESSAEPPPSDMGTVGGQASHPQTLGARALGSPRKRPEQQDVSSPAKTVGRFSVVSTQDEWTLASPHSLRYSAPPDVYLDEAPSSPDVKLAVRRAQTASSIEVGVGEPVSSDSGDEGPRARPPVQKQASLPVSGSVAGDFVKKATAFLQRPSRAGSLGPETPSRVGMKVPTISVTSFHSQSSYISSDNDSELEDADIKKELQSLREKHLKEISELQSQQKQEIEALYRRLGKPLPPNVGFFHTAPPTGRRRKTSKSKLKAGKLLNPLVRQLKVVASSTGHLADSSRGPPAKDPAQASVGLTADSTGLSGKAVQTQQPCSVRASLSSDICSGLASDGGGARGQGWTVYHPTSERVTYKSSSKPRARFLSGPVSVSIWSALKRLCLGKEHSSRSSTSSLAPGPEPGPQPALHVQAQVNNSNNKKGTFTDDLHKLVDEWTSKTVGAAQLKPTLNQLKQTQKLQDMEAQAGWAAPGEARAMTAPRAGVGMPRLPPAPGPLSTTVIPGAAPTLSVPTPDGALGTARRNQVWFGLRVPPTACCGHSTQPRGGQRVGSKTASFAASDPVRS

[4] = molecular target: kinases (KINOMEscan panel) (Homo sapiens, UniProt Q96RR4); conditions: CAMKK2; NEW KINOMEscan
Chain of kinases (KINOMEscan panel) (Homo sapiens, UniProt Q96RR4) (Q96RR4 whole entry): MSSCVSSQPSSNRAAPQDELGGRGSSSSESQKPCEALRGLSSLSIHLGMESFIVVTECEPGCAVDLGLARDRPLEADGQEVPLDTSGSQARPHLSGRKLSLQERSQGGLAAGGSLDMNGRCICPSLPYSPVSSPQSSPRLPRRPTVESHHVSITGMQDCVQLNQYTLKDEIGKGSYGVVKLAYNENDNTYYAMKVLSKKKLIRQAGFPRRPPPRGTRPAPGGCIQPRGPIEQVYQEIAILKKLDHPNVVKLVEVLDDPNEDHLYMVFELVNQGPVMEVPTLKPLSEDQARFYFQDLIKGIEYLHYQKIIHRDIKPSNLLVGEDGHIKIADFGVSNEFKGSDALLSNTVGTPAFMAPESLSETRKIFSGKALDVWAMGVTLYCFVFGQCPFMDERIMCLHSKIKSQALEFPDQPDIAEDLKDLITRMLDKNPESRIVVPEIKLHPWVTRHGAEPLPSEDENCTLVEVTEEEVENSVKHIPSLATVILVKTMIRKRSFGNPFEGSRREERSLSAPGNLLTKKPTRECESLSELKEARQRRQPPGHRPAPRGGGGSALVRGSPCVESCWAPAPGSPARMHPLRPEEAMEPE

[5] = molecular target: kinases (KINOMEscan panel) (Homo sapiens, UniProt P49759); conditions: kinase CLK1; NEW KINOMEscan
Chain of kinases (KINOMEscan panel) (Homo sapiens, UniProt P49759) (P49759 whole entry): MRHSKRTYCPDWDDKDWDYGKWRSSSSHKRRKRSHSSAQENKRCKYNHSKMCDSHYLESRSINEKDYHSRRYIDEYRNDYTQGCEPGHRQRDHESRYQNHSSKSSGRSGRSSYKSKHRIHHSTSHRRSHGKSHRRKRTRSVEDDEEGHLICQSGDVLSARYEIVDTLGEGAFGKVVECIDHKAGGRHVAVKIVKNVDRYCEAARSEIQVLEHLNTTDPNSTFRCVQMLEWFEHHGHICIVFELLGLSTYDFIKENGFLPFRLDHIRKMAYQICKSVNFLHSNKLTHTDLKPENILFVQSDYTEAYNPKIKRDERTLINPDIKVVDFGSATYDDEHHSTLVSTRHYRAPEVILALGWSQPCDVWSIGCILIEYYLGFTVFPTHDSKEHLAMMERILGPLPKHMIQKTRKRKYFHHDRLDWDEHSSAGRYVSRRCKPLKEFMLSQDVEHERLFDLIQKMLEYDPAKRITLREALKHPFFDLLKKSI

[6] = molecular target: T2, kinases (KINOMEscan panel) (Homo sapiens, UniProt Q92630); conditions: DYRK2; NEW KINOMEscan
T2 sequence (Q92630 1-601): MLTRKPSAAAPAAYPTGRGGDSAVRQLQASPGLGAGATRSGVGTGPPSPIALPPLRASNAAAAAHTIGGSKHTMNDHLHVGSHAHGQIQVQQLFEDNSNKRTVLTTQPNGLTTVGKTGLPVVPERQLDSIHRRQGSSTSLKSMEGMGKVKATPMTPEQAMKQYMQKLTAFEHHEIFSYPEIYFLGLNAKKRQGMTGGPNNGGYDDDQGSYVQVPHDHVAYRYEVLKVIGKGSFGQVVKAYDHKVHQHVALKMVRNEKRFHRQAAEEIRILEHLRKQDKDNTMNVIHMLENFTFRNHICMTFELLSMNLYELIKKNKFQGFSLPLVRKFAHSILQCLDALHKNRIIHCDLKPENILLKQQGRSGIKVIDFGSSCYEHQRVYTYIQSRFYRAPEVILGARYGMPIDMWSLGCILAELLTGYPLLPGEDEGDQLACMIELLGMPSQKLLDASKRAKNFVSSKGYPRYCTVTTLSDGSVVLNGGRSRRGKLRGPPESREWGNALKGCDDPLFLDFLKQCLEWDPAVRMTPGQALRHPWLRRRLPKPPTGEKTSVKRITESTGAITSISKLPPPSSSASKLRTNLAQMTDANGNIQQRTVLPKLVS

[7] = molecular target: T3, kinases (KINOMEscan panel) (Homo sapiens, UniProt O00329); conditions: NEW KINOMEscan
T3 sequence (O00329 1-1044): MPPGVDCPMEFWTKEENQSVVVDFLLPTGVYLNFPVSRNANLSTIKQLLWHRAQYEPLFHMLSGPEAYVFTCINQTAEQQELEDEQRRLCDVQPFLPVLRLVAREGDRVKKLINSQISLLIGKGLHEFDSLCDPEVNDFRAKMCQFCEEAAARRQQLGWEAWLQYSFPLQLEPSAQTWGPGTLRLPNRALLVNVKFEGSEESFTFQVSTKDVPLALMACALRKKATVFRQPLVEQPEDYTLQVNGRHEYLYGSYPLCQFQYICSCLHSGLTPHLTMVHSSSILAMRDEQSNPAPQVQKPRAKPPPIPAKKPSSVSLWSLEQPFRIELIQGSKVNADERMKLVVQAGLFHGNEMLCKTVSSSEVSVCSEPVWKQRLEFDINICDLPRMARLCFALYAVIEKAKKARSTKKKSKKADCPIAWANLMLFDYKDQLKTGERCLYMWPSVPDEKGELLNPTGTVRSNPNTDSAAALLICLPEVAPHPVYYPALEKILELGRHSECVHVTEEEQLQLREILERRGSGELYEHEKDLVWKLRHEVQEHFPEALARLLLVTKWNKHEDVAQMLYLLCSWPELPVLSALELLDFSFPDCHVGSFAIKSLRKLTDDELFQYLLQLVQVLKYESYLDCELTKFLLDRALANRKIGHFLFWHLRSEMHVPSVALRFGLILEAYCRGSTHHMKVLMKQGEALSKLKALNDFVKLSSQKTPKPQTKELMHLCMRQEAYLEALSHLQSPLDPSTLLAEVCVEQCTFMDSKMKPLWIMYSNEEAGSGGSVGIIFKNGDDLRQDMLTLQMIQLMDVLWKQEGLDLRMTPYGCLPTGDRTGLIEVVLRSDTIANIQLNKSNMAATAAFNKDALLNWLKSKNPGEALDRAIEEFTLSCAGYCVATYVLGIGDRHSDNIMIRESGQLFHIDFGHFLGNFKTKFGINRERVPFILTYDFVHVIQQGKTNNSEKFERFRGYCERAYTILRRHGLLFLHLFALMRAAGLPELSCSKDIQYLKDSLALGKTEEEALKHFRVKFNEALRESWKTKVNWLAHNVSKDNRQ

[8] = molecular target: kinases (KINOMEscan panel) (Homo sapiens, UniProt P36888, N841I); conditions: FLT3(N841I); NEW KINOMEscan

Structure (SMILES)	KINOMEscan DCLK1 [1]	KINOMEscan RET(M918T) [2]	KINOMEscan WNK2 [3]	KINOMEscan CAMKK2 [4]	KINOMEscan CLK1 [5]	KINOMEscan DYRK2 [6]	KINOMEscan PIK3CD [7]	KINOMEscan FLT3(N841I) [8]
Cc1cccc(-c2nc(N(C)c3ccc4ncsc4c3)c3ccccc3n2)n1 [NK-161]	36	15	0	9	2	12	2	0
Cc1cccc(-c2nc(Nc3ccc4nn(C)cc4c3)c3ccccc3n2)n1 [NK167]	49	0	0	6	0	0	0	3
